From patent US9738634B2, “Heterocyclic amide compound and herbicide” (SYNGENTA PARTICIPATIONS AG, priority 2013, dated 2017)

Tests used:
Type in all cases: in vivo
[1] = tested on: Italian ryegrass; test: Test Example 3: weedkilling efficacy through soil treatment; I: Italian ryegrass; details: soil treatment
Procedure, shortened: (§1)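 Crop and weed responses were judged three weeks after a uniform surface spray of the water-diluted emulsion at the given g/ha rate. Seeds sat beneath about 1.5 cm of sterilized diluvial soil, and boxes stood in a greenhouse at 25 to 30° C.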

[2] = tested on: rapeseed; test: Test Example 3: soil treatment, effect on crop; g: rapeseed; details: soil treatment, treatment dosage 80 g/ha
Excerpt: (§2) Weedkilling Efficacy Test Through Soil Treatment
(§3) Sterilized diluvial soil was introduced into 21 cm long, 13 cm wide, 7 cm deep plastic boxes, and seeds of crabgrass, green foxtail, barnyard grass, wild oat, black-grass, Italian ryegrass, common wind-grass, Indian mallow, redroot pigweed, fig-leafed goosefoot, chickweed, catchweed, birds-eye speedwell, corn, soybean, rice, wheat, beet and rapeseed were each spot-sown, and covered with about 1.5 cm of soil. Next, emulsions of compounds of the present invention prepared according to compounding example 2 were diluted with water to give the specified dosages, and applied uniformly onto the soil surface with a small sprayer. The plants were grown by placing the plastic boxes in a greenhouse at 25 to 30° C., and 3 weeks after the pesticide treatment the effect on each type of plant was investigated on the basis of the assessment criteria of test example 1.
(§4) A: barnyard grass, B: bulrush, C: oval-leafed pondweed, D: crabgrass, E: green foxtail, F: barnyard grass, G: wild oat, H: black-grass, I: Italian ryegrass, J: common wind-grass, K: Indian mallow, L: redroot pigweed, M: fig-leafed goosefoot, N: chickweed, O: catchweed, p: birds-eye speedwell, a: transplanted rice, b: directly sown rice, c: corn, d: soybean, e: wheat, f: beet, g: rapeseed
(§5) Further, pesticide dosage (g/ha) indicates the concentration regulated such that treatment was with only the stated number of grams (g), when calculated per hectare (ha).

[3] = tested on: black-grass; test: Test Example 3: weedkilling efficacy through soil treatment; H: black-grass; details: soil treatment
Procedure, shortened: as §1

[4] = tested on: common wind-grass; test: Test Example 3: weedkilling efficacy through soil treatment; J: common wind-grass; details: soil treatment, treatment dosage 80 g/ha
Excerpt: as §2, §3, §4, §5

[5] = tested on: wheat; test: Test Example 3: soil treatment, effect on crop; e: wheat; details: soil treatment
Procedure, shortened: as §1

[6] = tested on: redroot pigweed; test: Test Example 3: weedkilling efficacy through soil treatment; L: redroot pigweed; details: soil treatment, treatment dosage 315 g/ha
Procedure, shortened: as §1

[7] = tested on: barnyard grass; test: Test Example 1: weedkilling efficacy, preemergent weed treatment in the submerged state; A: barnyard grass; details: treatment dosage 252 g/ha
Procedure, shortened: (§6)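 Pre-emergence application onto floodwater (4 cm, alluvial soil) on the day of sowing, dose expressed as g/ha from diluted emulsion formulation. Weeds sown with 2.5-leaf transplanted rice as crop; plants held at 25–30 °C in greenhouse and scored against assessment criteria after 3 weeks.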

[8] = tested on: wild oat; test: Test Example 3: weedkilling efficacy through soil treatment; G: wild oat; details: soil treatment, treatment dosage 315 g/ha
Procedure, shortened: as §1

[9] = tested on: catchweed; test: Test Example 3: weedkilling efficacy through soil treatment; O: catchweed; details: soil treatment, treatment dosage 315 g/ha
Excerpt: as §2, §3, §4, §5

[10] = tested on: fig-leafed goosefoot; test: Test Example 3: weedkilling efficacy through soil treatment; M: fig-leafed goosefoot; details: soil treatment, treatment dosage 315 g/ha
Procedure, shortened: as §1

[11] = tested on: bulrush; test: Test Example 2: weedkilling efficacy, growth period weed treatment in the submerged state; B: bulrush; details: treatment dosage 252 g/ha
Procedure, shortened: (§7)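 Weeds treated at the 1-2 leaf stage by application of diluted emulsion onto floodwater (4 cm depth, alluvial soil) at specified g/ha. Grown in greenhouse at 25 to 30° C; herbicidal effect rated three weeks after treatment.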

[12] = tested on: crabgrass; test: Test Example 3: weedkilling efficacy through soil treatment; D: crabgrass; details: soil treatment, treatment dosage 315 g/ha
Procedure, shortened: as §1

[13] = tested on: oval-leafed pondweed; test: Test Example 1: weedkilling efficacy, preemergent weed treatment in the submerged state; C: oval-leafed pondweed; details: treatment dosage 252 g/ha
Procedure, shortened: as §6

[14] = tested on: green foxtail; test: Test Example 3: weedkilling efficacy through soil treatment; E: green foxtail; details: soil treatment, treatment dosage 315 g/ha
Procedure, shortened: as §1

[15] = tested on: transplanted rice; test: Test Example 1: preemergent weed treatment in the submerged state, effect on crop; a: transplanted rice; details: treatment dosage 252 g/ha
Procedure, shortened: as §6

[16] = tested on: Indian mallow; test: Test Example 3: weedkilling efficacy through soil treatment; K: Indian mallow; details: soil treatment, treatment dosage 315 g/ha
Procedure, shortened: as §1

[17] = tested on: birds-eye speedwell; test: Test Example 3: weedkilling efficacy through soil treatment; p: birds-eye speedwell; details: soil treatment, treatment dosage 315 g/ha
Procedure, shortened: as §1

[18] = tested on: oval-leafed pondweed; test: Test Example 2: weedkilling efficacy, growth period weed treatment in the submerged state; C: oval-leafed pondweed; details: treatment dosage 252 g/ha
Procedure, shortened: as §7

[19] = tested on: barnyard grass; test: Test Example 2: weedkilling efficacy, growth period weed treatment in the submerged state; A: barnyard grass; details: treatment dosage 252 g/ha
Procedure, shortened: as §7

[20] = tested on: soybean; test: Test Example 3: soil treatment, effect on crop; d: soybean; details: soil treatment, treatment dosage 315 g/ha
Procedure, shortened: as §1

[21] = tested on: chickweed; test: Test Example 3: weedkilling efficacy through soil treatment; N: chickweed; details: soil treatment, treatment dosage 315 g/ha
Procedure, shortened: as §1

[22] = tested on: directly sown rice; test: Test Example 3: soil treatment, effect on crop; b: directly sown rice; details: soil treatment, treatment dosage 315 g/ha
Procedure, shortened: as §1

[23] = tested on: corn; test: Test Example 3: soil treatment, effect on crop; c: corn; details: soil treatment, treatment dosage 315 g/ha
Procedure, shortened: as §1

[24] = tested on: beet; test: Test Example 3: soil treatment, effect on crop; f: beet; details: soil treatment, treatment dosage 315 g/ha
Procedure, shortened: as §1

[25] = tested on: bulrush; test: Test Example 1: weedkilling efficacy, preemergent weed treatment in the submerged state; B: bulrush; details: treatment dosage 252 g/ha
Procedure, shortened: as §6

Compound: CC(C)(C(=O)Nc1nc(C(F)(F)F)cs1)N1COCN(c2ccccc2)C1=O [A-1-06]
- I: Italian ryegrass, weedkilling efficacy grade ([1]; treatment dosage 80 g/ha): 5 (weed kill ratio 90% or more, (practically complete withering))
- g: rapeseed, effect on crop grade [2]: 4 (weed kill ratio 70% or more, less than 90%)
- H: black-grass, weedkilling efficacy grade ([3]; treatment dosage 80 g/ha): 5 (weed kill ratio 90% or more, (practically complete withering))
- J: common wind-grass, weedkilling efficacy grade [4]: 5 (weed kill ratio 90% or more, (practically complete withering))

Compound: CC(C)(C(=O)Nc1ccnc(Cl)n1)N1COCN(c2ccccc2)C1=O [A-1-20]
- I: Italian ryegrass, weedkilling efficacy grade ([1]; treatment dosage 80 g/ha): 5 (weed kill ratio 90% or more, (practically complete withering))
- e: wheat, effect on crop grade ([5]; treatment dosage 80 g/ha): 1 (weed kill ratio 5% or more, less than 20%)
- g: rapeseed, effect on crop grade [2]: 1 (weed kill ratio 5% or more, less than 20%)
- H: black-grass, weedkilling efficacy grade ([3]; treatment dosage 80 g/ha): 5 (weed kill ratio 90% or more, (practically complete withering))
- J: common wind-grass, weedkilling efficacy grade [4]: 5 (weed kill ratio 90% or more, (practically complete withering))

Compound: CC(C)(C(=O)Nc1cc(Cl)nc(Cl)n1)N1COCN(c2ccccc2)C1=O [A-1-21]
- I: Italian ryegrass, weedkilling efficacy grade ([1]; treatment dosage 80 g/ha): 4 (weed kill ratio 70% or more, less than 90%)
- e: wheat, effect on crop grade ([5]; treatment dosage 80 g/ha): 0 (weed kill ratio 5% or less (practically no effect))
- g: rapeseed, effect on crop grade [2]: 0 (weed kill ratio 5% or less (practically no effect))
- H: black-grass, weedkilling efficacy grade ([3]; treatment dosage 80 g/ha): 4 (weed kill ratio 70% or more, less than 90%)
- J: common wind-grass, weedkilling efficacy grade [4]: 5 (weed kill ratio 90% or more, (practically complete withering))

Compound: CC(C)(C(=O)Nc1cc(Br)ccn1)N1COCN(c2ccccc2)C1=O [A-2-08]
- I: Italian ryegrass, weedkilling efficacy grade ([1]; treatment dosage 80 g/ha): 5 (weed kill ratio 90% or more, (practically complete withering))
- e: wheat, effect on crop grade ([5]; treatment dosage 80 g/ha): 0 (weed kill ratio 5% or less (practically no effect))
- g: rapeseed, effect on crop grade [2]: 0 (weed kill ratio 5% or less (practically no effect))
- H: black-grass, weedkilling efficacy grade ([3]; treatment dosage 80 g/ha): 5 (weed kill ratio 90% or more, (practically complete withering))
- J: common wind-grass, weedkilling efficacy grade [4]: 5 (weed kill ratio 90% or more, (practically complete withering))

Compound: CC(C)(C(=O)Nc1cc(C(F)F)cc(Cl)n1)N1COCN(c2ccccc2)C1=O [A-2-27]
- I: Italian ryegrass, weedkilling efficacy grade ([1]; treatment dosage 80 g/ha): 5 (weed kill ratio 90% or more, (practically complete withering))
- e: wheat, effect on crop grade ([5]; treatment dosage 80 g/ha): 1 (weed kill ratio 5% or more, less than 20%)
- g: rapeseed, effect on crop grade [2]: 2 (weed kill ratio 20% or more, less than 40%)
- H: black-grass, weedkilling efficacy grade ([3]; treatment dosage 80 g/ha): 5 (weed kill ratio 90% or more, (practically complete withering))
- J: common wind-grass, weedkilling efficacy grade [4]: 5 (weed kill ratio 90% or more, (practically complete withering))

Compound: Cc1ccnc(NC(=O)C(C)(C)N2COCN(c3ccccc3)C2=O)c1 [A-2-37]
- L: redroot pigweed, weedkilling efficacy grade [6]: 1 (weed kill ratio 5% or more, less than 20%)
- A: barnyard grass, weed kill grade [7]: 5 (weed kill ratio 90% or more, (practically complete withering))
- I: Italian ryegrass, weedkilling efficacy grade ([1]; treatment dosage 315 g/ha): 5 (weed kill ratio 90% or more, (practically complete withering))
- G: wild oat, weedkilling efficacy grade [8]: 3 (weed kill ratio 40% or more, less than 70%)
- O: catchweed, weedkilling efficacy grade [9]: 0 (weed kill ratio 5% or less (practically no effect))
- M: fig-leafed goosefoot, weedkilling efficacy grade [10]: 3 (weed kill ratio 40% or more, less than 70%)
- B (bulrush) weedkilling efficacy grade [11]: 5 (weed kill ratio 90% or more, (practically complete withering))
- D: crabgrass, weedkilling efficacy grade [12]: 5 (weed kill ratio 90% or more, (practically complete withering))
- C: oval-leafed pondweed, weed kill grade [13]: 5 (weed kill ratio 90% or more, (practically complete withering))
- E: green foxtail, weedkilling efficacy grade [14]: 4 (weed kill ratio 70% or more, less than 90%)
- e: wheat, effect on crop grade ([5]; treatment dosage 315 g/ha): 0 (weed kill ratio 5% or less (practically no effect))
- a: transplanted rice, effect on crop grade [15]: 0 (weed kill ratio 5% or less (practically no effect))
- K: Indian mallow, weedkilling efficacy grade [16]: 0 (weed kill ratio 5% or less (practically no effect))
- P: birds-eye speedwell, weedkilling efficacy grade [17]: 5 (weed kill ratio 90% or more, (practically complete withering))
- C (oval-leafed pondweed) weedkilling efficacy grade [18]: 3 (weed kill ratio 40% or more, less than 70%)
- A (barnyard grass) weedkilling efficacy grade [19]: 5 (weed kill ratio 90% or more, (practically complete withering))
- d: soybean, effect on crop grade [20]: 0 (weed kill ratio 5% or less (practically no effect))
- N: chickweed, weedkilling efficacy grade [21]: 1 (weed kill ratio 5% or more, less than 20%)
- b: directly sown rice, effect on crop grade [22]: 2 (weed kill ratio 20% or more, less than 40%)
- H: black-grass, weedkilling efficacy grade ([3]; treatment dosage 315 g/ha): 3 (weed kill ratio 40% or more, less than 70%)
- c: corn, effect on crop grade [23]: 1 (weed kill ratio 5% or more, less than 20%)
- f: beet, effect on crop grade [24]: 0 (weed kill ratio 5% or less (practically no effect))
- B: bulrush, weed kill grade [25]: 5 (weed kill ratio 90% or more, (practically complete withering))
